Experimental data as given in patent US4591599A, “Perfluoropyrrolizines and emulsions thereof useful as blood substitutes” (The Green Cross Corporation, priority 1984, dated 1986).

Experiments:
Wister-strain male rats = assay: Acute toxicity test; assay type: in vivo; conditions: 100 ml/kg-body weight, intravenous, observed for one week
Procedure: The acute toxicity test on the preparations of the present invention was carried out using the preparations of the present invention shown in Table 4 which had been physiologically isotonized. The test animals used were Wister-strain male rats (weighing 100-120 g).

[1] = Distribution of perfluoro-compound in organs (gas chromatography); assay type: in vivo, Wister-strain male rats; conditions: 4 g/kg, tail vein, rats

Row | Structure (SMILES) | death cases (Wister-strain male rats) | adverse influence on the liver or spleen organ ([1]; 3 months) | uptake by and disappearance from the reticulo-endothelial organs ([1]; 3 months) | Residual Rate of perfluorobicyclo compound ([1]; Liver, 1 week after administration) [%] | Residual Rate of perfluorobicyclo compound ([1]; Liver, 2 weeks after administration) [%] | Residual Rate of perfluorobicyclo compound ([1]; Liver, 3 months after administration) [%] | Residual Rate of perfluorobicyclo compound ([1]; Liver, 4 weeks after administration) [%] | Residual Rate of perfluorobicyclo compound ([1]; Spleen, 1 week after administration) [%] | Residual Rate of perfluorobicyclo compound ([1]; Spleen, 2 weeks after administration) [%] | Residual Rate of perfluorobicyclo compound ([1]; Spleen, 3 months after administration) [%] | Residual Rate of perfluorobicyclo compound ([1]; Spleen, 4 weeks after administration) [%]
1 | FC(F)(F)C(F)(F)C1(F)N2C(F)(F)C(F)(F)C(F)(F)C(F)(F)C2(F)C(F)(F)C(F)(F)C1(F)F (stereo not drawn) [Example 101, perfluoro-4-ethyloctahydroquinolidine] | no death case |  |  |  |  |  |  |  |  |  | 
2 | FC(F)(F)C1(F)N2C(F)(F)C(F)(F)C(F)(F)C(F)(F)C2(F)C(F)(F)C(F)(F)C1(F)F (stereo not drawn) [Example 1, perfluoro-4-methyloctahydroquinolidine] | no death case | no evidence of adverse influence on the liver or spleen organ | taken up in greater amounts by the reticulo-endothelial organs shortly after the administration, but soon disappeared rapidly | 19.92 | 8.66 | 0.30 | 1.88 | 11.61 | 9.33 | 0.09 | 2.45
